Results taken from ChEMBL document CHEMBL1697731, “Cheminformatics analysis of assertions mined from literature that describe drug-induced liver injury in different species” (Chem Res Toxicol, 2010).

Legend:
Hepatotoxicity [1] = experiment: Literature-mined compound from Fourches et al multi-species drug-induced liver injury (DILI) dataset, effect in humans; conditions: human
Hepatotoxicity [2] = experiment: Literature-mined compound from Fourches et al multi-species drug-induced liver injury (DILI) dataset, effect in rodents; conditions: rodentia
Hepatotoxicity [3] = experiment: Literature-mined compound from Fourches et al multi-species drug-induced liver injury (DILI) dataset, effect in non-rodents

SMILES	Hepatotoxicity (Hepatotoxicity [1])	Hepatotoxicity (Hepatotoxicity [2])	Hepatotoxicity (Hepatotoxicity [3])	Hepatotoxicity (Hepatotoxicity [1]; Liver)	Hepatotoxicity (Hepatotoxicity [2]; Liver)	Hepatotoxicity (Hepatotoxicity [3]; Liver)
CO/N=C(\C(=O)N[C@@H]1C(=O)N2C(C(=O)O)=C(COC(C)=O)CS[C@H]12)c1csc(N)n1 [CEFOTAXIME]	drug-induced liver injury reported	no drug-induced liver injury reported	no drug-induced liver injury reported			
CO[C@@]1(NC(=O)C2SC(=C(C(N)=O)C(=O)O)S2)C(=O)N2C(C(=O)O)=C(CSc3nnnn3C)CS[C@@H]21 (stereo partly drawn) [CEFOTETAN]	drug-induced liver injury reported	no drug-induced liver injury reported	no drug-induced liver injury reported			
CC=CC1=C(C(=O)O)N2C(=O)[C@@H](NC(=O)[C@H](N)c3ccc(O)cc3)[C@H]2SC1 [CEFPROZIL]	drug-induced liver injury reported	no drug-induced liver injury reported	no drug-induced liver injury reported			
CO/N=C(\C(=O)N[C@@H]1C(=O)N2C(C(=O)O)=C(CSc3nc(=O)c(=O)[nH]n3C)CS[C@H]12)c1csc(N)n1 [CEFTRIAXONE]	drug-induced liver injury reported	drug-induced liver injury reported	drug-induced liver injury reported			
Cc1ccc(-c2cc(C(F)(F)F)nn2-c2ccc(S(N)(=O)=O)cc2)cc1 [CELECOXIB]				drug-induced liver injury reported	drug-induced liver injury reported	no drug-induced liver injury reported
O=C(Cc1cccs1)N[C@@H]1C(=O)N2C(C(=O)[O-])=C(C[n+]3ccccc3)CS[C@H]12 [CEPHALORIDINE]	drug-induced liver injury reported	no drug-induced liver injury reported	no drug-induced liver injury reported			
CC(=O)OCC1=C(C(=O)O)N2C(=O)[C@@H](NC(=O)Cc3cccs3)[C@H]2SC1 [CEPHALOTHIN]	drug-induced liver injury reported	no drug-induced liver injury reported	no drug-induced liver injury reported			
COCc1c(C(C)C)nc(C(C)C)c(/C=C/[C@@H](O)C[C@@H](O)CC(=O)[O-])c1-c1ccc(F)cc1.[Na+] [CERIVASTATIN SODIUM]	no drug-induced liver injury reported	drug-induced liver injury reported	drug-induced liver injury reported			
COCc1c(C(C)C)nc(C(C)C)c(/C=C/[C@@H](O)C[C@@H](O)CC(=O)O)c1-c1ccc(F)cc1 [CERIVASTATIN]	drug-induced liver injury reported	drug-induced liver injury reported	drug-induced liver injury reported			
O=C(O)COCCN1CCN(C(c2ccccc2)c2ccc(Cl)cc2)CC1 (stereo not drawn) [CETIRIZINE]				drug-induced liver injury reported	no drug-induced liver injury reported	no drug-induced liver injury reported
C[C@H](CCC(=O)O)[C@H]1CC[C@H]2[C@@H]3[C@H](O)C[C@@H]4C[C@H](O)CC[C@]4(C)[C@H]3CC[C@]12C [CHENODIOL]	drug-induced liver injury reported	drug-induced liver injury reported	drug-induced liver injury reported			
OC(O)C(Cl)(Cl)Cl [CHLORAL HYDRATE]				drug-induced liver injury reported	drug-induced liver injury reported	no drug-induced liver injury reported
O=C(O)CCCc1ccc(N(CCCl)CCCl)cc1 [CHLORAMBUCIL]	drug-induced liver injury reported	drug-induced liver injury reported	no drug-induced liver injury reported			
Cc1ccc(S(=O)(=O)[N-]Cl)cc1.[Na+] [CHLORAMINE-T ANHYDROUS]	no drug-induced liver injury reported	drug-induced liver injury reported	drug-induced liver injury reported			
O=C(N[C@H](CO)[C@H](O)c1ccc([N+](=O)[O-])cc1)C(Cl)Cl [CHLORAMPHENICOL]	drug-induced liver injury reported	drug-induced liver injury reported	no drug-induced liver injury reported			
CNC1=Nc2ccc(Cl)cc2C(c2ccccc2)=[N+]([O-])C1 [CHLORDIAZEPOXIDE]	no drug-induced liver injury reported	drug-induced liver injury reported	no drug-induced liver injury reported			
CC(=O)O[C@]1(C(C)=O)CC[C@H]2[C@@H]3C=C(Cl)C4=CC(=O)CC[C@]4(C)[C@H]3CC[C@@]21C [CHLORMADINONE ACETATE]	drug-induced liver injury reported	drug-induced liver injury reported	drug-induced liver injury reported			
CN1C(=O)CCS(=O)(=O)C1c1ccc(Cl)cc1 (stereo not drawn) [CHLORMEZANONE]	drug-induced liver injury reported	no drug-induced liver injury reported	no drug-induced liver injury reported			
Clc1ccc(C(c2ccc(Cl)cc2)C(Cl)(Cl)Cl)cc1 [CHLOROPHENOTHANE]	no drug-induced liver injury reported	drug-induced liver injury reported	no drug-induced liver injury reported			
CCN(CC)CCCC(C)Nc1ccnc2cc(Cl)ccc12 (stereo not drawn) [CHLOROQUINE]	drug-induced liver injury reported	drug-induced liver injury reported	drug-induced liver injury reported			
Cc1cc(O)cc(C)c1Cl [CHLOROXYLENOL]	no drug-induced liver injury reported	drug-induced liver injury reported	no drug-induced liver injury reported			
CN(C)CCC(c1ccc(Cl)cc1)c1ccccn1 (stereo not drawn) [CHLORPHENIRAMINE]	drug-induced liver injury reported	no drug-induced liver injury reported	no drug-induced liver injury reported			
CN(C)CCCN1c2ccccc2Sc2ccc(Cl)cc21 [CHLORPROMAZINE]	drug-induced liver injury reported	drug-induced liver injury reported	drug-induced liver injury reported			
CCCNC(=O)NS(=O)(=O)c1ccc(Cl)cc1 [CHLORPROPAMIDE]	drug-induced liver injury reported	drug-induced liver injury reported	no drug-induced liver injury reported			
CN(C)[C@@H]1C(O)=C(C(N)=O)C(=O)[C@@]2(O)C(O)=C3C(=O)c4c(O)ccc(Cl)c4[C@@](C)(O)[C@H]3C[C@@H]12 [CHLORTETRACYCLINE]	no drug-induced liver injury reported	drug-induced liver injury reported	drug-induced liver injury reported			
C=C1CC[C@H](O)C/C1=C/C=C1\CCC[C@]2(C)[C@@H]([C@H](C)CCCC(C)C)CC[C@@H]12 [CHOLECALCIFEROL]	no drug-induced liver injury reported	drug-induced liver injury reported	no drug-induced liver injury reported			
